Results reported in patent US9255100B2 (BAYER INTELLECTUAL PROPERTY GMBH, priority 2010, dated 2016).

The molecules below were run against T1, N-terminally GST-tagged human full length recombinant Mps-1 kinase (Homo sapiens, UniProt P33981) (assay: Mps-1 kinase assay (TR-FRET)). Details: Mps1 IC50 [nM], 10 μM ATP, 1 μM peptide substrate, 60 min at 22° C.
T1 construct: N-terminally GST-tagged human full length recombinant Mps-1 kinase; purchased Invitrogen, Karslruhe, Germany PV4071
T1 sequence (P33981 1-857): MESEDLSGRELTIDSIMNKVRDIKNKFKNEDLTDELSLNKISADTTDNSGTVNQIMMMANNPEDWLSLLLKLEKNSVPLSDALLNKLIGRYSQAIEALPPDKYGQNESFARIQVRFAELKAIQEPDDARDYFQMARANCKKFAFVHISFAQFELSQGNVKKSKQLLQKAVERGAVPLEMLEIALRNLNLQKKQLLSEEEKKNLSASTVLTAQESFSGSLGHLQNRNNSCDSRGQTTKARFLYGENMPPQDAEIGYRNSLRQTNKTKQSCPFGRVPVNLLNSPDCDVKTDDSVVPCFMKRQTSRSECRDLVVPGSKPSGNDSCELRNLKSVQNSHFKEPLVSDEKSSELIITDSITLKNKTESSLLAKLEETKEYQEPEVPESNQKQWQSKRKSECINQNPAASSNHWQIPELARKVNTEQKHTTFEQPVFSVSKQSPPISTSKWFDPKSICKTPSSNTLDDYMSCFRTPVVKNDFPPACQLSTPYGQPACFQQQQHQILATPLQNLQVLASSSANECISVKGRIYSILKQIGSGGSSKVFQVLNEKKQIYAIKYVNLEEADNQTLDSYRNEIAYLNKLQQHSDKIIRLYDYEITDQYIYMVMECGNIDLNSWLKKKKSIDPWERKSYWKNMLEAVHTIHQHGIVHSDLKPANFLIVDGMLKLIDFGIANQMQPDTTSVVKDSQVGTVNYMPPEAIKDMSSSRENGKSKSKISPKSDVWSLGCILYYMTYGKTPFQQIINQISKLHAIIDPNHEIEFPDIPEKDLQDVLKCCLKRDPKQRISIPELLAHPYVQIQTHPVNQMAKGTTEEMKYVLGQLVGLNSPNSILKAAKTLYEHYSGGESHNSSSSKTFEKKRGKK
Type: biochemical
Experimental: The human kinase Mps-1 phosphorylates a biotinylated substrate peptide. Detection of the phosphorylated product is achieved by time-resolved fluorescence resonance energy transfer (TR-FRET) from Europium-labelled anti-phospho-Serine/Threonine antibody as donor to streptavidin labelled with cross-linked allophycocyanin (SA-XLent) as acceptor. Compounds are tested for their inhibition of the kinase activity.
N-terminally GST-tagged human full length recombinant Mps-1 kinase (purchased from Invitrogen, Karslruhe, Germany, cat. no PV4071) was used. As substrate for the kinase reaction a biotinylated peptide of the amino-acid sequence […] (C-terminus in amide form, purchased from Biosynthan GmbH, Berlin) was used.
The concentration of Mps-1 in the assay was adjusted to the activity of the enzyme lot and was chosen appropriate to have the assay in the linear range, typical enzyme concentrations were in the range of about 1 nM (final conc. in the 5 μl assay volume).
The resulting mixture was incubated 1 h at 22° C. to allow the binding of the phosphorylated peptide to the anti-phospho(Ser/Thr)-Europium-antibody. Subsequently the amount of phosphorylated substrate was evaluated by measurement of the resonance energy transfer from the Europium-labelled anti-phospho(Ser/Thr) antibody to the Streptavidin-XLent.
`Cc1cc(-c2cnc3c(NCCC(F)(F)F)cc(-c4ccc(F)cc4)nn23)ccc1C(=O)NC1CC1` [Example 28, N-cyclopropyl-4-{6-(4-fluorophenyl)-8-[(3,3,3-trifluoropropyl)amino]imidazo[1,2-b]pyridazin-3-yl}-2-methylbenzamide] was tested, and the IC50 was < 1 nM. Work on `Cc1cc(-c2cnc3c(NC[C@@H]4CCCO4)cc(-c4ccncc4)nn23)ccc1C(=O)NC1CC1` [Example 31, N-cyclopropyl-2-methyl-4-[6-(pyridin-4-yl)-8-{[(2S)-tetrahydrofuran-2-ylmethyl]amino}imidazo[1,2-b]pyridazin-3-yl]benzamide] yielded an IC50 of 1.1 nM. Work on `CC(C)(O)CNc1cc(-c2ccc(F)cc2)nn2c(-c3ccc(C(=S)NC4CC4)cc3)cnc12` [Example 32, N-cyclopropyl-4-{6-(4-fluorophenyl)-8-[(2-hydroxy-2-methylpropyl)amino]imidazo[1,2-b]pyridazin-3-yl}benzenecarbothioamide] yielded an IC50 of 4.3 nM. Molecule `Cc1cc(-c2cnc3c(NC[C@H]4CCCO4)cc(-c4ccnn4C)nn23)ccc1C(=O)NC1CC1` [Example 33, N-cyclopropyl-2-methyl-4-[6-(1-methyl-1H-pyrazol-5-yl)-8-{[(2R)-tetrahydrofuran-2-ylmethyl]amino}imidazo[1,2-b]pyridazin-3-yl]benzamide] has an IC50 of 1.5 nM. With `Cc1cc(-c2cnc3c(NC[C@@H]4CCCO4)cc(-c4ccnn4C)nn23)ccc1C(=O)NC1CC1` [Example 34, N-cyclopropyl-2-methyl-4-[6-(1-methyl-1H-pyrazol-5-yl)-8-{[(2S)-tetrahydrofuran-2-ylmethyl]amino}imidazo[1,2-b]pyridazin-3-yl]benzamide] the IC50 was 2.4 nM. Molecule `Cc1cc(-c2cnc3c(NC[C@H]4CCCO4)cc(-c4ccncc4)nn23)ccc1C(=O)NC1CC1` [Example 35, N-cyclopropyl-2-methyl-4-[6-(pyridin-4-yl)-8-{[(2R)-tetrahydrofuran-2-ylmethyl]amino}imidazo[1,2-b]pyridazin-3-yl]benzamide] has an IC50 of 2.5 nM. In the case of `COC(C)(C)CNc1cc(-c2ccccc2CO)nn2c(-c3ccc(C(=O)NC4CC4)c(C)c3)cnc12` [Example 38, N-cyclopropyl-4-{6-[2-(hydroxymethyl)phenyl]-8-[(2-methoxy-2-methylpropyl)amino]imidazo[1,2-b]pyridazin-3-yl}-2-methylbenzamide], the IC50 is reported as 10.3 nM. `COC(C)(C)CNc1cc(-c2ccnn2C)nn2c(-c3ccc(C(=O)NC4CC4)c(C)c3)cnc12` [Example 39, N-cyclopropyl-4-{8-[(2-methoxy-2-methylpropyl)amino]-6-(1-methyl-1H-pyrazol-5-yl)imidazo[1,2-b]pyridazin-3-yl}-2-methylbenzamide] was tested, and the IC50 was 3.7 nM. With `C=Cc1cc(NCC(C)(C)O)c2ncc(-c3ccc(C(=O)NC4CC4)c(C)c3)n2n1` [Example 40, N-cyclopropyl-4-{8-[(2-hydroxy-2-methylpropyl)amino]-6-vinylimidazo[1,2-b]pyridazin-3-yl}-2-methylbenzamide] the IC50 was 111 nM. For `C=Cc1cc(NCCC(F)(F)F)c2ncc(-c3ccc(C(=O)NC4CC4)c(C)c3)n2n1` [Example 41, N-cyclopropyl-2-methyl-4-{8-[(3,3,3-trifluoropropyl)amino]-6-vinylimidazo[1,2-b]pyridazin-3-yl}benzamide], the IC50 was 7.1 nM. Work on `Cc1cc(-c2cnc3c(NCC(C)(C)O)cc(C4=CCNCC4)nn23)ccc1C(=O)NC1CC1` [Example 42, N-cyclopropyl-4-{8-[(2-hydroxy-2-methylpropyl)amino]-6-(1,2,3,6-tetrahydropyridin-4-yl)imidazo[1,2-b]pyridazin-3-yl}-2-methylbenzamide] yielded an IC50 of 7.8 nM. In the case of `CC(C)(O)CNc1cc(C2=CCCCC2)nn2c(-c3ccc(C(=S)NC4CC4)cc3)cnc12` [Example 43, 4-{6-(Cyclohex-1-en-1-yl)-8-[(2-hydroxy-2-methylpropyl)amino]imidazo[1,2-b]pyridazin-3-yl}-N-cyclopropylbenzenecarbothioamide], the IC50 is reported as 21.1 nM. Work on `OCc1ccccc1-c1cc(NCCC(F)(F)F)c2ncc(-c3ccc(C(=S)NC4CC4)cc3)n2n1` [Example 44, N-cyclopropyl-4-{6-[2-(hydroxymethyl)phenyl]-8-[(3,3,3-trifluoropropyl)amino]imidazo[1,2-b]pyridazin-3-yl}benzenecarbothioamide] yielded an IC50 of 2.6 nM. For `Cn1nccc1-c1cc(NCCC(F)(F)F)c2ncc(-c3ccc(C(=S)NC4CC4)cc3)n2n1` [Example 45, N-cyclopropyl-4-{6-(1-methyl-1H-pyrazol-5-yl)-8-[(3,3,3-trifluoropropyl)amino]imidazo[1,2-b]pyridazin-3-yl}benzenecarbothioamide], the IC50 was 1.1 nM. `OCc1cccc(-c2cc(NCCC(F)(F)F)c3ncc(-c4ccc(C(=S)NC5CC5)cc4)n3n2)c1` [Example 46, N-cyclopropyl-4-{6-[3-(hydroxymethyl)phenyl]-8-[(3,3,3-trifluoropropyl)amino]imidazo[1,2-b]pyridazin-3-yl}benzenecarbothioamide] showed an IC50 of 1.1 nM. `CC(C)(O)CNc1cc(-c2ccncc2)nn2c(-c3ccc(C(=S)NC4CC4)cc3)cnc12` [Example 47, N-cyclopropyl-4-{8-[(2-hydroxy-2-methylpropyl)amino]-6-(pyridin-4-yl)imidazo[1,2-b]pyridazin-3-yl}benzenecarbothioamide] showed an IC50 of 2 nM. For `Cc1cc(-c2cnc3c(NCCC(F)(F)F)cc(C4CC4)nn23)ccc1C(=O)NC1CC1` [Example 48, N-cyclopropyl-4-{6-cyclopropyl-8-[(3,3,3-trifluoropropyl)amino]imidazo[1,2-b]pyridazin-3-yl}-2-methylbenzamide], the IC50 was 1.4 nM. Molecule `COc1cc(C(=O)NC2CC2)ccc1-c1cnc2c(NCC(C)(C)O)cc(-c3ccc(F)cc3)nn12` [Example 49, N-cyclopropyl-4-{6-(4-fluorophenyl)-8-[(2-hydroxy-2-methylpropyl)amino]imidazo[1,2-b]pyridazin-3-yl}-3-methoxybenzamide] has an IC50 of 11.9 nM. With `COc1cc(C(=O)NC2CC2)ccc1-c1cnc2c(NCC(C)(C)O)cc(-c3ccnn3C)nn12` [Example 50, N-cyclopropyl-4-{8-[(2-hydroxy-2-methylpropyl)amino]-6-(1-methyl-1H-pyrazol-5-yl)imidazo[1,2-b]pyridazin-3-yl}-3-methoxybenzamide] the IC50 was 84.8 nM. `COc1cc(C(=O)NC2CC2)ccc1-c1cnc2c(NCC(C)(C)O)cc(Sc3ccccc3)nn12` [Example 51A, N-cyclopropyl-4-{8-[(2-hydroxy-2-methylpropyl)amino]-6-(phenylsulfanyl)imidazo[1,2-b]pyridazin-3-yl}-3-methoxybenzamide] was tested, and the IC50 was 58 nM. `CC(C)(O)CNc1cc(Sc2ccccc2)nn2c(-c3ccc(C(=O)NC4CC4)cc3O)cnc12` [Example 51B, N-cyclopropyl-3-hydroxy-4-{8-[(2-hydroxy-2-methylpropyl)amino]-6-(phenylsulfanyl)imidazo[1,2-b]pyridazin-3-yl}benzamide] was tested, and the IC50 was 1.2 nM. `COc1cc(C(=O)NC2CC2)ccc1-c1cnc2c(NCCC(F)(F)F)cc(-c3ccc(F)cc3)nn12` [Example 52, N-cyclopropyl-4-{6-(4-fluorophenyl)-8-[(3,3,3-trifluoropropyl)amino]imidazo[1,2-b]pyridazin-3-yl}-3-methoxybenzamide] was tested, and the IC50 was 3.2 nM. With `COc1cc(C(=O)NC2CC2)ccc1-c1cnc2c(NCCC(F)(F)F)cc(-c3ccnn3C)nn12` [Example 53, N-cyclopropyl-3-methoxy-4-{6-(1-methyl-1H-pyrazol-5-yl)-8-[(3,3,3-trifluoropropyl)amino]imidazo[1,2-b]pyridazin-3-yl}benzamide] the IC50 was 7.1 nM. Work on `COc1cc(C(=O)NC2CC2)ccc1-c1cnc2c(NCCC(F)(F)F)cc(-c3ccccc3CO)nn12` [Example 54, N-cyclopropyl-4-{6-[2-(hydroxymethyl)phenyl]-8-[(3,3,3-trifluoropropyl)amino]imidazo[1,2-b]pyridazin-3-yl}-3-methoxybenzamide] yielded an IC50 of 7.6 nM. `COc1ccccc1Sc1cc(NCCC(F)(F)F)c2ncc(-c3ccc(C(=O)NC4CC4)c(C)c3)n2n1` [Example 55, N-cyclopropyl-4-{6-[(2-methoxyphenyl)sulfanyl]-8-[(3,3,3-trifluoropropyl)amino]imidazo[1,2-b]pyridazin-3-yl}-2-methylbenzamide] showed an IC50 of 1.2 nM.
